According to ChEMBL document CHEMBL4270672, “Synthesis and Biological Evaluation of Fused Tricyclic Heterocycle Piperazine (Piperidine) Derivatives As Potential Multireceptor Atypical Antipsychotics” (J Med Chem, 2018):
The source made the active and inactive calls. The calls are words filed in the database; no cut-off is given here.

Experiments:
[1] = tested on: Rattus norvegicus; assay: Cognitive enhancing effect in Sprague-Dawley rat assessed as effect on total exploration time for familiar objects in acquisition trial at 0.03 to 0.3 mg/kg, po administered 1 hr measured for 3 mins by novel object recognition test; format: functional, organism-based
[2] = biological target: D(2) dopamine receptor (Homo sapiens, UniProt P14416); assay: Agonist activity at dopamine D2 receptor long isoform (unknown origin) expressed in HEK293 cells assessed as induction of calcium flux at 10 uM after 60 min by calcium 4-dye based FLIPR assay relative to control; format: functional, cell-based
[3] = biological target: T1, 5-hydroxytryptamine receptor 2A (Homo sapiens, UniProt P28223); assay: Agonist activity at serotonin 5-HT2A receptor (unknown origin) expressed in HEK293 cells assessed as induction of calcium flux at 10 uM after 60 mins by calcium 4-dye based FLIPR assay relative to control; format: functional, cell-based
[4] = biological target: T1, 5-hydroxytryptamine receptor 2A; assay: Antagonist activity at serotonin 5-HT2A receptor (unknown origin) expressed in HEK293 cells assessed as inhibition of serotonin-induced calcium flux at 10 uM after 15 mins by calcium 4-dye based FLIPR assay relative to control; format: functional, cell-based
[5] = Half life in Sprague-Dawley rat at 1 mg/kg, iv by LC-MS/MS analysis; format: ADME, organism-based; settings: in vivo
[6] = AUC (0 to t) in Sprague-Dawley rat at 10 mg/kg, po by LC-MS/MS analysis; format: ADME, organism-based; settings: in vivo
[7] = biological target: D(2) dopamine receptor (Rattus norvegicus, UniProt P61169)
[8] = biological target: T1, 5-hydroxytryptamine receptor 2A
[9] = biological target: T2, Adrenergic receptor alpha-1 (Rattus norvegicus, UniProt P15823+P23944+P43140)
T2 sequence (P15823 whole entry): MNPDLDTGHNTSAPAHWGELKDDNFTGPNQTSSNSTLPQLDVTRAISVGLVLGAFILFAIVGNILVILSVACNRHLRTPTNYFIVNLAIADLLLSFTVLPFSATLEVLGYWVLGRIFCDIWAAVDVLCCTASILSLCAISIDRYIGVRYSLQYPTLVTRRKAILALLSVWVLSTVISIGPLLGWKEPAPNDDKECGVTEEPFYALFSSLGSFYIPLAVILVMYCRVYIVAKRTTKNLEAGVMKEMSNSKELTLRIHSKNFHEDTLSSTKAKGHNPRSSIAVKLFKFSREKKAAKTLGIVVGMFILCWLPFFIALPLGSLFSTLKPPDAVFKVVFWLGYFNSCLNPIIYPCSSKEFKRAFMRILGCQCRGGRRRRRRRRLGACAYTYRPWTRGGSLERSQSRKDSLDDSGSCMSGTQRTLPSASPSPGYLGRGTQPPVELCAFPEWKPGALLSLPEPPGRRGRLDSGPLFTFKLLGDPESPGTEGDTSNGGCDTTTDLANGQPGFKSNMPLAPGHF
T2 sequence (P23944 whole entry): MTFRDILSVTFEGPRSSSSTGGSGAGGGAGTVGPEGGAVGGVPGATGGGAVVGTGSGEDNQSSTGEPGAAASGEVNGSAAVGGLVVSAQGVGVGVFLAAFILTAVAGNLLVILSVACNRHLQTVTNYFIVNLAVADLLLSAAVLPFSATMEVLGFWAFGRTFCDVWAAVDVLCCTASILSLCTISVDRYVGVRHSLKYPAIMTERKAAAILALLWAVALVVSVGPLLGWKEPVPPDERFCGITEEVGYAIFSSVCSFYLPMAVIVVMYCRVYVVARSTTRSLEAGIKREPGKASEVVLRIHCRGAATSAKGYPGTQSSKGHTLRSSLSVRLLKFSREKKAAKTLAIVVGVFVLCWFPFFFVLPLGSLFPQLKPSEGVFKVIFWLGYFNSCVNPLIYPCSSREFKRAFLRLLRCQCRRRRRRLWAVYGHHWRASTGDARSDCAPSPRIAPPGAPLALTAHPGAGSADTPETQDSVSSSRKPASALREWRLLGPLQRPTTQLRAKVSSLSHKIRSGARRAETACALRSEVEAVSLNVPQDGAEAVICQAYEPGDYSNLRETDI
T2 sequence (P43140 whole entry): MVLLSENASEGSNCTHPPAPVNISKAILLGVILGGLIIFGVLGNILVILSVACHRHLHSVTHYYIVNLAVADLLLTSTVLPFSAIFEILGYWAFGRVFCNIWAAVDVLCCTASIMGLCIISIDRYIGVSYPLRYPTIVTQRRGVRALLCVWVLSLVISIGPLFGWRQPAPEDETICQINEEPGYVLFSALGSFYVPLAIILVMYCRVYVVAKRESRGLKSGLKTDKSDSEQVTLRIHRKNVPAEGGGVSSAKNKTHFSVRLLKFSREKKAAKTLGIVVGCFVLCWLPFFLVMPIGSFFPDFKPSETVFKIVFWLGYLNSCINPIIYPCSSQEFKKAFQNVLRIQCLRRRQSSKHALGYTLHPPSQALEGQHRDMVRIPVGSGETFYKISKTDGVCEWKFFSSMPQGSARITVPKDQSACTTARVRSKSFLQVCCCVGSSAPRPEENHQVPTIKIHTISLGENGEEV
Description: Displacement of [3H]-prazosin from alpha-1 adrenergic receptor in rat cerebral cortex homogenates incubated for 60 mins by liquid scintillation counting

T1 sequence (P28223 whole entry): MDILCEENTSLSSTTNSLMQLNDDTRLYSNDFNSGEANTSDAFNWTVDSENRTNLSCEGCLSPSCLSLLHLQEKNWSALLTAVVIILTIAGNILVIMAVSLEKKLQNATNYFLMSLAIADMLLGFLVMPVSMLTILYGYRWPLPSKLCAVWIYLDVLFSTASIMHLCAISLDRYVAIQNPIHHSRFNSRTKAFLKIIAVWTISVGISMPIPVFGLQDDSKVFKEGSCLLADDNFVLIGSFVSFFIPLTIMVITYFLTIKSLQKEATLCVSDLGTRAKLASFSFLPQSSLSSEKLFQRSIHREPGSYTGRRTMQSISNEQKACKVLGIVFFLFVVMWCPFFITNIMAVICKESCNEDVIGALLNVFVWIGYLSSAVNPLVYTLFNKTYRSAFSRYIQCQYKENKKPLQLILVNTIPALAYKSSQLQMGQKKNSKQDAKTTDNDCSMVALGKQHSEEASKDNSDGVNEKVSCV
Chain of D(2) dopamine receptor (Rattus norvegicus, UniProt P61169) (P61169 whole entry): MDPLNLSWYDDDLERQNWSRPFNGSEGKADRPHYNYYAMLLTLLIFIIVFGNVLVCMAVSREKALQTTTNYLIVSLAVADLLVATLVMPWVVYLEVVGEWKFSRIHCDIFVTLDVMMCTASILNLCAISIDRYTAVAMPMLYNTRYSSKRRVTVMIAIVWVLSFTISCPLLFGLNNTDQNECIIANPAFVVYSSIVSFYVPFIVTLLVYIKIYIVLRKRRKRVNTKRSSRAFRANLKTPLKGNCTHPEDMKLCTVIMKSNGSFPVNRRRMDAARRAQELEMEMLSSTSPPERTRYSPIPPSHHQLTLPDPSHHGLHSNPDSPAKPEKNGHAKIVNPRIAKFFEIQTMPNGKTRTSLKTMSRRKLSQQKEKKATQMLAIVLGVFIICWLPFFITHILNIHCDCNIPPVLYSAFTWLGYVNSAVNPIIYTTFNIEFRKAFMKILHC
Chain of D(2) dopamine receptor (Homo sapiens, UniProt P14416) (P14416 whole entry, canonical isoform): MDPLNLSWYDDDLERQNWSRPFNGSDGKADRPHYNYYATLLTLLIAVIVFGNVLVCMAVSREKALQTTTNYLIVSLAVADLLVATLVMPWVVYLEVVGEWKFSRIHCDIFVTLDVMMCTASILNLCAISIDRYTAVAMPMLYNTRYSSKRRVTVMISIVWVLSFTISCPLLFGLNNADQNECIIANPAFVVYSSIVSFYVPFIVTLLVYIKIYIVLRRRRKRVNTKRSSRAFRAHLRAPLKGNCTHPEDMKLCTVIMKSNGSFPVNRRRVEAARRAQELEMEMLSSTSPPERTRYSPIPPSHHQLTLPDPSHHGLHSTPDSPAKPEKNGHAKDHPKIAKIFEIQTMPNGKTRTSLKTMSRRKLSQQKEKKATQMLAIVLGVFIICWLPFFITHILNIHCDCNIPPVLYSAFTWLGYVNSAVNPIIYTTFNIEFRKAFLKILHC

Compound: O=C(CCCCN1CCC(c2noc3cc(F)ccc23)CC1)c1cc2c3c(c1)CCN3C(=O)CC2
- Activity [1]: inactive
- Activity [2]: 9.8%
- Activity [3]: 0.6%
- inhibition [4]: 100%
- half-life [5]: 2.15 h
- AUC(0-t) [6]: 18.5 µg·h/mL
- Ki [7]: 0.0029 µM
- IC50 [8]: 0.257 µM
- Ki [9]: 0.431 µM
